Here are results for two compounds from US5814634A, “Alkylenediamine derivative anti-ulcer drug and antibacterial drug” (Shiseido Co. Ltd., priority 1996, dated 1998).

Data set [1] has as its system gastric corpus mucosa cells. Conditions: rabbit, gastric mucosal cells, 4 h, 100 µM.
The test system of the next data set is stress ulcer. The experiment in a line: WIS: Restraint and Water Immersion Stress-Induced Ulcer Inhibition Test. The following applies: 100 mg/kg oral, rats, water immersion stress 7 hours. The data set is classed as in vivo, rat (male Crj:SD or Slc:SD). The procedure, abridged: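 Fasted male SD rats (6–7 weeks, 5–8 per group) received compound orally at 100 mg/kg in 0.3% CMC-Na or 0.05% Tween 80; 10 min later, restraint with water immersion (21 °C) for 7 h. Summed glandular erosion length gave the ulcer index; inhibition (%) versus vehicle controls.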

Data set [2] is described as follows: MTT: Cell Damaging and Protecting Effect Test. The following applies: rabbit, gastric mucosal cells.
The test system of data set [3] is isolated gastric fundic gland. Description: CAP: Acid Secretion Inhibition Test In Vitro ([14C]-aminopyrine uptake). It is filed as cell-based, rabbit (male Japanese White). The following applies: Oryctolagus cuniculus, 40 min, read-out: CAP: acid secretion inhibitory rate. The method in brief:
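Fundic gland suspension (1.6×10^6 cells/ml in HEPES nutrient buffer) was stimulated with histamine 10^-5 M plus test compound 10^-5 M (final) and [14C]-aminopyrine 0.05 μCi/ml, then shaken 40 min at 37 °C. Pellet and supernatant were scintillation-counted to give the NaSCN-corrected specific aminopyrine accumulation ratio, in duplicate.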

With `CC(C)=CCCC(C)=CCOc1ccc(C(=O)NCCN2CC(C)OC(C)C2)cc1` (stereo not shown) [Example 34], in data set [1], the “MTT: cell damaging rate” value is listed as 14%. Further, the “WIS: ulcer formation inhibitory rate” value in the data set on stress ulcer worked out at 38%.
On to `CC(C)=CCC/C(C)=C/COc1ccc(C(=O)NCCN2CCN(CC(=O)N3CCCC3)CC2)cc1` [Example 55], for which the cytotoxicity at 4 h, 100 µM in data set [2] is 27%. Besides, the inhibition at 10 µM in data set [3] was 99.2%.
